A value given as a limit tells only on which side of the number the result lay.

In the assay the target is T1, recombinant murine Aurora A enzyme (Mus musculus, UniProt P97477).
T1 construct: hexahistidine (His6) (N); made in house; host or cells: insect cells, baculovirus (Bac-to-Bac, Invitrogen)
T1 sequence (P97477 whole entry): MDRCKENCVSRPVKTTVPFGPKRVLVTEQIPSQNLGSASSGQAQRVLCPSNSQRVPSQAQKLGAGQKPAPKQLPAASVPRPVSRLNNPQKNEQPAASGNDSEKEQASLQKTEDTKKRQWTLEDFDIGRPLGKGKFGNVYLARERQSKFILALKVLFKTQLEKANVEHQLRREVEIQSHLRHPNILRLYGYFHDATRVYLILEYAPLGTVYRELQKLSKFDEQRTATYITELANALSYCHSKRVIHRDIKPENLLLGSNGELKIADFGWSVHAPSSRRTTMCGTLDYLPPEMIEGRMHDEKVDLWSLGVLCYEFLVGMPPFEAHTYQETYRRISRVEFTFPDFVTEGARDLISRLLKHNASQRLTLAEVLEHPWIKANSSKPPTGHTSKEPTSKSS
As to the kind of experiment: Aurora A DELFIA Kinase Assay. Format: biochemical. The following applies: mouse Aurora A, 250 μM ATP; threshold less than or equal to 100 nM; read-out: IC50.
By IC50 is commonly meant the concentration that inhibits the measured activity by half. Take `COc1cccc(F)c1C1=NCc2cnc(Nc3ccc(C(=O)N4CCCC(N)C4)cc3)nc2-c2ccc(Cl)cc21` (stereo not shown) [Compound I-262]: the IC50 was at most 0.1 µM.
With `CNC1CCN(C(=O)c2ccc(Nc3ncc4c(n3)-c3ccc(Cl)cc3C(c3c(F)cccc3Cl)=NC4)cc2)CC1` [Compound I-325, 9-chloro-7-(2-chloro-6-fluorophenyl)-N-(4-{[4-(methylamino)piperidin-1-yl]carbonyl}phenyl)-5H-pyrimido[5,4-d][2]benzazepin-2-amine], the IC50 was at most 0.1 µM.
As for `COc1cccc(F)c1C1=NCc2cnc(Nc3ccc(C(=O)N4CC(N(C)C)C4)cc3)nc2-c2ccc(Cl)cc21` [Compound I-179, 9-Chloro-N-(4-{[3-(dimethylamino)azetidin-1-yl]carbonyl}phenyl)-7-(2-fluoro-6-methoxyphenyl)-5H-pyrimido[5,4-d][2]benzazepin-2-amine], the figure is at most 0.1 µM.
`COc1cccc(F)c1C1=NCc2cnc(Nc3ccc(C(=O)N4CCNCC4)cc3)nc2-c2ccc(Cl)cc21` [Compound I-243, 9-chloro-7-(2-fluoro-6-methoxyphenyl)-N-[4-(piperazin-1-ylcarbonyl)phenyl]-5H-pyrimido[5,4-d][2]benzazepin-2-amine]: the IC50 was at most 0.1 µM.
As to `CNCCCNC(=O)c1ccc(Nc2ncc3c(n2)-c2ccc(Cl)cc2C(c2ccccc2F)=NC3)cc1` [Compound I-130, 4-[9-Chloro-7-(2-fluoro-phenyl)-5H-benzo[c]pyrimido[4,5-e]azepin-2-ylamino]-N-(3-methylamino-propyl)-benzamide], the IC50 is at most 0.1 µM.
Take `O=C(c1ccc(Nc2ncc3c(n2)-c2ccc(Cl)cc2C(c2ccccc2F)=NC3)cc1)N1CCOCC1` [Compound I-26, {4-[9-Chloro-7-(2-fluoro-phenyl)-5H-benzo[c]pyrimido[4,5-e]azepin-2-ylamino]-phenyl}-morpholin-4-yl-methanone]: the IC50 is at most 0.1 µM.
As for `CNCCN(C)C(=O)c1ccc(Nc2ncc3c(n2)-c2ccc(Cl)cc2C(c2ccccc2F)=NC3)cc1` [Compound I-3, 4-[9-Chloro-7-(2-fluoro-phenyl)-5H-benzo[c]pyrimido[4,5-e]azepin-2-ylamino]-N-methyl-N-(2-methylamino-ethyl)-benzamide], the figure is at most 0.1 µM.
To `O=C(O)C1CN=C(c2ccc(Nc3ncc4c(n3)-c3ccc(Cl)cc3C(c3c(F)cccc3F)=NC4)cc2)N1` (stereo not shown) [Compound I-306, 2-(4-{[9-chloro-7-(2,6-difluorophenyl)-5H-pyrimido[5,4-d][2]benzazepin-2-yl]amino}phenyl)-4,5-dihydro-1H-imidazole-5-carboxylic acid] belongs at most 0.1 µM.
As for `CN(C)CCC(=O)c1cccc(Nc2ncc3c(n2)-c2ccc(Cl)cc2C(c2c(F)cccc2F)=NC3)c1` [Compound I-359, 1-(3-{[9-chloro-7-(2,6-difluorophenyl)-5H-pyrimido[5,4-d][2]benzazepin-2-yl]amino}phenyl)-3-(dimethylamino)propan-1-one], the IC50 was at most 0.1 µM.
As for `O=C(c1ccc(Nc2ncc3c(n2)-c2ccc(Cl)cc2C(c2ccccc2F)=NC3)cc1)N1CCNCC1` [Compound I-8, {4-[9-Chloro-7-(2-fluoro-phenyl)-5H-benzo[c]pyrimido[4,5-e]azepin-2-ylamino]-phenyl}-piperazin-1-yl-methanone], the figure is at most 0.1 µM; as for `COc1cccc(F)c1C1=NCc2cnc(Nc3ccc(C(=O)N(C)CCN(C)C)cc3)nc2-c2ccc(Cl)cc21` [Compound I-255, 4-{[9-chloro-7-(2-fluoro-6-methoxyphenyl)-5H-pyrimido[5,4-d][2]benzazepin-2-yl]amino}-N-[2-(dimethylamino)ethyl]-N-methylbenzamide], at most 0.1 µM; as for `COc1cccc(F)c1C1=NCc2cnc(Nc3ccc(C(=O)N4CC(N)C4)cc3)nc2-c2ccc(Cl)cc21` [Compound I-286], at most 0.1 µM.
As for `CN(C)C1CCN(C(=O)c2ccc(Nc3ncc4c(n3)-c3ccc(Cl)cc3C(c3ccccc3F)=NC4)cc2)C1` (stereo not shown) [Compound I-100, {4-[9-Chloro-7-(2-fluoro-phenyl)-5H-benzo[c]pyrimido[4,5-e]azepin-2-ylamino]-phenyl}-(3-dimethylamino-pyrrolidin-1-yl)-methanone], the figure is at most 0.1 µM; as for `NC(=O)Cc1cccc(Nc2ncc3c(n2)-c2ccc(Cl)cc2C(c2ccccc2Cl)=NC3)c1` [Compound I-66, 2-{3-[9-Chloro-7-(2-chloro-phenyl)-5H-benzo[c]pyrimido[4,5-e]azepin-2-ylamino]-phenyl}-acetamide], at most 0.1 µM.
As for `CCOC(=O)C(N)CCNC(=O)c1ccc(Nc2ncc3c(n2)-c2ccc(Cl)cc2C(c2c(F)cccc2F)=NC3)cc1` (stereo not shown) [Compound I-300, ethyl 2-amino-4-[(4-{[9-chloro-7-(2,6-difluorophenyl)-5H-pyrimido[5,4-d][2]benzazepin-2-yl]amino}benzoyl)amino]butanoate], the IC50 was at most 0.1 µM.
Take `CNC1CN(C(=O)c2cc(Nc3ncc4c(n3)-c3ccc(Cl)cc3C(c3c(F)cccc3F)=NC4)ccc2Cl)C1` [Compound I-291, 9-chloro-N-(4-chloro-3-{[3-(methylamino)azetidin-1-yl]carbonyl}phenyl)-7-(2,6-difluorophenyl)-5H-pyrimido[5,4-d][2]benzazepin-2-amine]: the IC50 was at most 0.1 µM.
As for `NCCCc1cccc(Nc2ncc3c(n2)-c2ccc(Cl)cc2C(c2c(F)cccc2F)=NC3)c1` [Compound I-373, N-[3-(3-aminopropyl)phenyl]-9-chloro-7-(2,6-difluorophenyl)-5H-pyrimido[5,4-d][2]benzazepin-2-amine], the figure is at most 0.1 µM; as for `CC1(C)CN=C(c2ccc(Nc3ncc4c(n3)-c3ccc(Cl)cc3C(c3c(F)cccc3F)=NC4)cc2)N1` [Compound I-270, 9-chloro-7-(2,6-difluorophenyl)-N-[4-(5,5-dimethyl-4,5-dihydro-1H-imidazol-2-yl)phenyl]-5H-pyrimido[5,4-d][2]benzazepin-2-amine], at most 0.1 µM.
Consider `CN1CCC(N(C)C(=O)c2ccc(Nc3ncc4c(n3)-c3ccc(Cl)cc3C(c3ccccc3F)=NC4)cc2)CC1` [Compound I-128, 4-[9-Chloro-7-(2-fluoro-phenyl)-5H-benzo[c]pyrimido[4,5-e]azepin-2-ylamino]-N-methyl-N-(1-methyl-piperidin-4-yl)-benzamide], for which the IC50 was at most 0.1 µM.
To `COc1cccc(Nc2ncc3c(n2)-c2ccc(C(=O)O)cc2C(c2ccccc2F)=NC3)c1` [Compound I-256, 7-(2-fluorophenyl)-2-[(3-methoxyphenyl)amino]-5H-pyrimido[5,4-d][2]benzazepine-9-carboxylic acid] belongs at most 0.1 µM; to `CN1CCN(C(=O)c2ccc(Nc3ncc4c(n3)-c3ccc(Cl)cc3C(c3ccccc3F)=NC4)cc2)CC1` [Compound I-9, {4-[9-Chloro-7-(2-fluoro-phenyl)-5H-benzo[c]pyrimido[4,5-e]azepin-2-ylamino]-phenyl}-(4-methyl-piperazin-1-yl)-methanone], at most 0.1 µM; to `COc1ccccc1C1=NCc2cnc(Nc3ccc(C(=O)N4CCN(C)CC4)cc3)nc2-c2ccc(Cl)cc21` [Compound I-12, {4-[9-Chloro-7-(2-methoxy-phenyl)-5H-benzo[c]pyrimido[4,5-e]azepin-2-ylamino]-phenyl}-(4-methyl-piperazin-1-yl)-methanone], at most 0.1 µM.

Source of the values: patent US9102678B2, “Compounds and methods for inhibiting mitotic progression” (Millennium Pharmaceuticals, Inc., priority 2004, dated 2015).
